Assay results published in patent publication US9617331B2, “Methods of regulating angiogenesis by administering agents which increase apoB-100 polypeptide” (Yeda Research and Development Co. Ltd., priority 2011, dated 2017).

How the values were obtained:
stl mutants = test: Rescue of ectopic SIV sprouts in stl mutant zebrafish; format: in vivo; details: for excess angiogenesis / ectopic branching phenotype of stl mutants: intravascular supply at 2.5 dpf
Description: (§1) FIG. 6 illustrates quantitation of SW vascular plexus width and ectopic ventral SW sprout number and length. The maximal width of the normal SIV plexus is measured from supraintestinal artery to subintestinal vein (1). The number of ectopic sprouts greater than 1 μm in length projecting ventrally from the subintestinal vein is counted, and the total length of all of these sprouts (2) is measured. […] Scale bar 30 μm.
Cloning of mtp and Rescue of the Mutant Phenotype: The full-length coding sequence of zebrafish mtp was amplified by PCR from WT cDNA and cloned into a pCSDest vector [Villefranc et al., Dev Dyn 236, 3077-3087 (2007)] as further described herein below. mtp mRNA was synthesized with mMessage mMachine kit (Ambion) and injected at a concentration of 232 pg per embryo into the 1 cell stage cytoplasm or into the YSL at dome stage (approximately at 4 hpf).
(§2) Microangiography and Cell Transplants: 10 μM Atorvastatin (Sigma), 1 ug/μl DiI-LDL (Invitrogen), 6 μg/ml C6 in 0.5% BSA Fatty Acid Free (Sigma A8806) and Human Apolipoprotein B-100 (A50220H Meridian Life Science) in 0.5% BSA Fatty Acid Free (Sigma A8806) microangiography was performed at 2.5 dpf as described [Isogai et al., Dev Biol 230, 278-301 (2001)]. HEK293 cells co-transfected with Huh7MTP+apoB34 (see herein below) or un-transfected control cells were transplanted into the perivitelline space of one side of the yolk of 2.5 dpf stl; Tg(fli1:EGFP)^y1 mutant or WT embryos, ventral to the developing SIVs [Nicoll et al., J Cell Mol Med (2008)].
(§3) In Situ Hybridization, Oil Red 0, and Alkaline Phosphatase (AP) Staining: Embryos were fixed overnight in 4% PFA and processed for AP staining [Habeck et al., Curr Biol 12, 1405-1412 (2002)], Oil Red 0 staining [Schlegel et al., Biochemistry 45, 15179-15187 (2006)], or whole-mount in situ hybridization using antisense mRNA probes for vegfr1, vegfr2, vegfr3 and VeCad as described [Pham et al., Dev Biol 303, 772-783 (2007)].
pCS2vegfrlCDS mRNA ([…]) and pCS2mtpCDSmRNA ([…]) were injected at the 1 cell stage or at dome stage, respectively.
(§4) Fatty Acids Feeding of Zebrafish Embryos: Dechorionized 24 hours post fertilization (hpf) embryos were incubated with 6 μg/ml short, intermediate or long chain fatty acid in a solution containing 0.1% BSA Fatty Acid Free (Sigma A8806) for 48 hours. Embryos were then fixed overnight in 4% PFA and processed for AP staining.

WT zebrafish embryos = test: Survival of WT zebrafish embryos treated with oleic acid; format: in vivo; details: increasing concentrations
Description: FIG. 11 is a survival curve of WT zebrafish embryos treated with increasing concentrations of oleic acid. Only embryos treated with less than 6 μg/ml oleic acid survived until 6 dpf.

[1] = system: subintestinal vessels (SIVs) of wild type zebrafish; test: Ectopic subintestinal vessel (SIV) sprouting in wild type zebrafish (AP staining / confocal imaging); format: in vivo; details: for ectopic SIV branching: 3.5 dpf wild type larva treated with 10 μM at 2.5 dpf, vs DMSO
Description: as §1
Zebrafish Husbandry and Injection: Zebrafish were raised by standard methods. The Tg(fli1:EGFP)^y1, Tg(fli1:nEGFP)^y7 [Yaniv et al., Nat Med 12, 711-716 (2006)] and Tg(flt1:YFP)^hu4624 [Hogan et al., Nat Genet 41, 396-398 (2009)] lines were previously derived. MOs and DNA were injected as further described below.
as §2, §3
Microscopy and Imaging: Zebrafish embryos used for imaging or in situ hybridization were treated with 0.00 3% phenylthiourea from 8hpf to inhibit melanin pigment formation. […]

trunk ISVs = test: Trunk intersegmental vessel (ISV) phenotype of morpholino-injected zebrafish; format: in vivo; details: 3.5 dpf MO-injected zebrafish
Description: Microscopy and Imaging: Zebrafish embryos used for imaging or in situ hybridization were treated with 0.00 3% phenylthiourea from 8hpf to inhibit melanin pigment formation. Confocal imaging was performed using a FVIOOO Olympus imaging system or Zeiss LSM780 upright confocal microscope equipped with ×20 NA 1.0 lens.
Injection of Zebrafish Embryos: The mtp [Schlegel, A. & Stainier, D. Y. Biochemistry 45, 15179-15187 (2006)], apoCII [Pickart, M. A., et al. PLoS One 1, e104 (2006);
MOs (Gene-Tools) were resuspended and injected at concentrations from 5-20 ng/embryo.

apoCII morphants = test: Fatty acid feeding of apoCII morphants, trunk ISV phenotype; format: in vivo, zebrafish; details: medium supplemented with 6 μg/ml (C6)
Description: as §4

[2] = stl mutants injected intravascularly at 2.5 dpf, vs not injected

## delipidated form of apoB-100: Human Apolipoprotein B-100 (A50220H Meridian Life Science)
Stl mutants
  excess angiogenesis / ectopic branching phenotype of stl mutants: efficiently reverted the excess angiogenesis phenotype
Stl mutants; [2]
  average number of ectopic SIV segments: significantly reduced
  average total length of ectopic SIV segments: significantly reduced

## CCCCCCCC/C=C\CCCCCCCC(=O)O [oleic acid]
WT zebrafish embryos
  oleic acid concentration at which embryos survived until 6 dpf: less than 6 μg/ml

## CC(C)c1c(C(=O)Nc2ccccc2)c(-c2ccccc2)c(-c2ccc(F)cc2)n1CC[C@@H](O)C[C@@H](O)CC(=O)O [atorvastatin, Atorvastatin]
[1]
  ectopic SIV branching: efficiently phenocopied the excess angiogenesis phenotype of stl mutants
[1]; listed as Atorvastatin
  ectopic SIV branching: results in ectopic SW branching

## vegfr1 MO: vegfr1 ATG blocking morpholino, SEQ ID NO: 1, 5′-ATATCGAACATTCTCTTGGTCTTGC-3′ (all phosphorodiamidate morpholino (PMO))
[1]; 3.5 dpf Tg(fli-EGFP)y1 zebrafish, MO-injected
  ectopic SIV sprouts after morpholino injection: ectopic SIV sprouts
Trunk ISVs
  trunk ISV phenotype: ectopic branching and sprouting

## CCCCCC(=O)O [scFA]
Stl mutants; 3.5 dpf stl mutants, 6 μg/ml fatty acid in embryo medium
  ectopic vessels phenotype of stl mutants: did not inhibit the ectopic vessels phenotype
Stl mutants
  excess angiogenesis / ectopic branching phenotype of stl mutants: did not rescue the ectopic branching phenotype
apoCII morphants
  trunk ISV phenotype of apoCII morphants: No phenotypic changes were detected
